Experiments:
E. coli ATCC 25922 [1] = assay: AST by analysis of changes in morphology and growth pattern of a microbial cell (MAC 2.0 chip imaging); type: cell-based; details: Normal / Filament / Swelling
Excerpt: (§1) Four reference strains (E. coli ATCC 25922, S. aureus ATCC 29213, P. aeruginosa ATCC 27853, and E. faecalis ATCC 29212) were used as objective strains, in accordance with Clinical and Laboratory Standards Institute (CLSI) guidelines. […] The bacterial cell in MAC 2.0TM (QuantaMatrix) was monitored through a S Plan Fluor ELWD 60X (NA 1.49) lens of an inverted optical microscope (Eclipse Ti-Nikon, IX71-Olympus) provided in a heating system, and then, an electron multiplying CCD camera (QuantEM:512SC Photometrics for Eclipse Ti) was used to obtain images of a region where is adjacent to an interface between the agarose well of MAC 2.0TM and the antimicrobial agents well, over time.

E. faecalis ATCC 29212 [2] = assay: as above; type: cell-based; details: RRG = relatively rapid growth, RSG = relatively slow growth
Excerpt: as §1

P. aeruginosa ATCC 27853 [3] = assay: as above; type: cell-based; details: Normal / Filament / Swelling
Excerpt: as §1

S. aureus ATCC 29213 [4] = assay: as above; type: cell-based; details: RRG = relatively rapid growth, RSG = relatively slow growth
Excerpt: as §1

E. coli ATCC 25922 [5] = assay: MIC by the proposed method (SCMA), from morphology and growth pattern changes; type: cell-based; details: time to result 3 hr, unit assumed
Excerpt: (§2) The bacterial cell in MAC 2.0™ (QuantaMatrix) was monitored through a S Plan Fluor ELWD 60X (NA 1.49) lens of an inverted optical microscope (Eclipse Ti—Nikon, IX71—Olympus) provided in a heating system, and then, an electron multiplying CCD camera (QuantEM:512SC Photometrics for Eclipse Ti) was used to obtain images of a region where is adjacent to an interface between the agarose well of MAC 2.0™ and the antimicrobial agents well, over time. […] In the AST method according to the inventive concept, minimal inhibitory concentration (MIC) was measured using the changes in morphology and growth pattern of the four reference strains (i.e., E. coli ATCC 25922, S. aureus ATCC 29213, P. aeruginosa ATCC 27853, and E. faecalis ATCC 29212) and was compared with MIC quality control (QC) per CLSI guidelines.

E. faecalis ATCC 29212 [6] = assay: as above; type: cell-based; details: time to result 4 hr
Excerpt: as §2

P. aeruginosa ATCC 27853 [7] = assay: as above; type: cell-based; details: time to result 3 hr
Excerpt: as §2

S. aureus ATCC 29213 [8] = assay: as above; type: cell-based; details: time to result 4 hr
Excerpt: as §2

E. coli ATCC 25922 [9] = details: time to result 16~20 hr; cited from earlier work
P. aeruginosa ATCC 27853 [10] = details: time to result 16~20 hr; cited from earlier work
S. aureus ATCC 29213 [11] = details: time to result 16~20 hr; cited from earlier work
E. faecalis ATCC 29212 [12] = details: time to result 16~20 hr, unit assumed; cited from earlier work

Substance: Gentamicin
- Criteria (change in morphology and growth pattern) (E. coli ATCC 25922 [1]): Normal
- Criteria (change in morphology and growth pattern) (E. faecalis ATCC 29212 [2]): Normal
- Criteria (change in morphology and growth pattern) (P. aeruginosa ATCC 27853 [3]): Normal growth
- Criteria (change in morphology and growth pattern) (S. aureus ATCC 29213 [4]): Normal growth
- SCMA Results (MIC) (E. coli ATCC 25922 [5]): 0.25 µg/mL
- SCMA Results (MIC) (E. faecalis ATCC 29212 [6]): ≤ 500 µg/mL
- SCMA Results (MIC) (P. aeruginosa ATCC 27853 [7]): 0.5~1
- SCMA Results (MIC) (S. aureus ATCC 29213 [8]): 0.25~0.5
- CLSI QC range (MIC) (E. coli ATCC 25922 [9]): 0.25~1
- CLSI QC range (MIC) (P. aeruginosa ATCC 27853 [10]): 0.5~2
- CLSI QC range (MIC) (S. aureus ATCC 29213 [11]): 0.12~1
- CLSI QC range (MIC) (E. faecalis ATCC 29212 [12]): ≤ 500 µg/mL
